# In paper PMC11878239, “Biochemical investigations using mass spectrometry to monitor JMJD6-catalysed hydroxylation of multi-lysine containing bromodomain-derived substrates” (RSC Chemical Biology, 2025):
# “Also recorded” adds a separate entry of the source.
# Legend:
# full-length His6-JMJD6 [1] = target: T1, full-length His6-JMJD6 (Homo sapiens, UniProt Q6NYC1); assay: SPE-MS kinetics of JMJD6-catalysed lysyl hydroxylation (2OG, Fe(II), LAA, BRD-derived peptides); format: biochemical; details: for tri- or higher-order hydroxylation: 0.05 μM JMJD6, SPE-MS time courses
# T1 construct: An enzyme mixture (10 μL) containing full-length His6-JMJD6 (5 μM; final concentration: 0.05 μM); made in house; host or cells: Escherichia coli BL21 (DE3), pET-28a(+) plasmid
# Description: (§1) Recombinant human JMJD6 (full length with a N-terminal His6-tag) was produced in Escherichia coli BL21 (DE3) cells using a pET-28a(+) plasmid and purified by standard Ni(II)-affinity size-exclusion chromatography, as previously reported.[40] […] Purified JMJD6 was stored at −78 °C; fresh aliquots were used for all JMJD6 assays.
# Peptides were used as 10 mM stock solutions in DMSO (Sigma-Aldrich; BioUltra grade).
# (§2) Assay samples were aspirated under vacuum for 0.4 s, then loaded onto a C4 solid phase extraction (SPE) cartridge. After loading, the C4 SPE cartridge was washed with 0.1%v/v aqueous formic acid to remove non-volatile buffer salts (5 s, 1.5 mL min^−1). The peptide was eluted from the SPE cartridge with 0.1%v/v aqueous formic acid in 75/25v/v acetonitrile/water into the mass spectrometer (5 s, 1.6 mL min^−1) and the SPE cartridge re-equilibrated with 0.1%v/v aqueous formic acid (1 s, 1.25 mL min^−1).
# Peaks corresponding to the m/z +5 charge states of the BRD-derived substrate peptide and the hydroxylated product peptides were extracted from the ion chromatogram and integrated using RapidFire Integrator 4.3.0 (Agilent). Peak area data were exported into Microsoft Excel and used to calculate the relative abundance of the mono-hydroxylated product peptide using the following equation: […]
# The concentration of the mono-hydroxylated product peptide was calculated by multiplying the %-fraction of the mono-hydroxylated product peptide by the initial concentration of the substrate peptide employed in the assay. Initial reaction velocities were then calculated and fitted to a Michaelis–Menten plot using nonlinear regression (GraphPad Prism 5).
# full-length His6-JMJD6 [2] = target: T1, full-length His6-JMJD6; assay: SPE-MS kinetics of JMJD6 for O2; format: biochemical
# Description: as §1
# Assays to determine the kinetic parameters of JMJD6 for O2 were performed in 2 mL gas-tight glass vials (Sigma-Aldrich) in independent triplicates. 50 mM Tris buffer (pH 7.5; 0.95 mL) was incubated in a 2 mL gas-tight glass vial at 37 °C for 30 min with a fixed O2 concentration (in N2; specified in Fig S9, ESI ^†), adjusted using a mass flow controller. […] The JMJD6-catalysed reaction was performed at 37 °C at a fixed O2 concentration and was stopped after the reaction time specified (Fig. S9, ESI ^†) by the addition of 20%v/v aqueous formic acid (100 μL) and analysed by SPE-MS. The %-concentration of O2 in N2, adjusted with a mass flow controller, was converted into an O2 concentration [μM] by calibration using a standard (i.e., y[μM] = 9.026·x[%]).[100] Data were analysed by SPE-MS as described above to calculate apparent JMJD6 kinetic parameters for O2.
# full-length His6-JMJD6 [3] = target: T1, full-length His6-JMJD6; assay: LC-MS of JMJD6-catalysed hydroxylation under 18O2 or in 18OH2; format: biochemical; details: 2OG 2 mM, FAS 20 μM, LAA 1 mM, peptide 50 μM, Tris pH 7.5, 24 h, room temperature
# Description: […] The assay solutions were transferred to a custom-made air-tight container, which was then sealed and removed from the anaerobic chamber. […] The container was evacuated and then filled with […] to a pressure of ∼700 mbar. […] The enzyme reactions were incubated for 24 h at room temperature, after which time the container was returned to the anaerobic chamber. The reactions were stopped by the addition of 10%v/v aqueous formic acid (20 μL) and analysed by LC–MS using an Agilent 1290 infinity II LC system comprising a 1290 infinity II multi-sampler and a 1290 infinity II high speed pump connected to an Agilent 6550 accurate mass iFunnel quadrupole time-of-flight (QTOF) mass spectrometer. Samples (6 μL) were injected onto a 2.1 × 50 mm, 1.8 μm ZORBAX RRHD Eclipse Plus C18 column equipped with a UHPLC guard column (Agilent; flow rate: 0.2 mL min^−1). […] Acquired data were analysed using Agilent MassHunter Qualitative Analysis (version B.07.00).
# Tris buffer, cofactor and BRD4_511–550 stock solutions were prepared using ^18OH2 (CK Isotopes) and JMJD6 was buffer exchanged into 50 mM Tris (pH 7.5) in ^18OH2. The enzyme reactions were incubated under an ambient atmosphere at room temperature for 24 h, after which the reactions were stopped by the addition of 10%v/v aqueous formic acid (20 μL) and analysed by LC–MS as described above.
# [4] = retention on SPE cartridges; format: physicochemical; details: C4 SPE cartridge
# Description: as §2, with “The JMJD6-catalysed hydroxylation of the BRD-derived substrate peptide was monitored at ambient temperature by SPE-MS using a RapidFire RF 365 high-throughput sampling robot (Agilent) attached to an iFunnel Agilent 6550 accurate mass quadrupole time-of-flight (Q-TOF) mass spectrometer, which was operated in the positive ionization mode. Assay” for “Assay”
sequence,measurement,setting,value
"LAELQEQLKAVHEQLAALSQPQQNKPKKKEKDKKEKKKEK [BRD4_511–550, 40-mer peptide fragment derived from human BRD4, JMJD6 substrate, prepared by SPPS]",tri- or higher-order hydroxylation,full-length His6-JMJD6 [1]; ambient temperature,negligible levels of BRD4_511–550 hydroxylations beyond mono-hydroxylation
same,tri- or higher-order hydroxylation,"full-length His6-JMJD6 [1]; ambient temperature, listed as BRD4511-550",No evidence for triple; also recorded: No evidence for triple (or higher order)
same,apparent maximum velocity v^app max,"full-length His6-JMJD6 [1]; BRD peptide substrate varied, 0.05 μM full-length His6-JMJD6, 2OG 200 μM, FAS 2 μM, LAA 100 μM, 50 mM Tris pH 7.5, ambient temperature, mono-hydroxylation, substrate inhibition fit, mean ± SD n = 3",5.8 ± 1.2 nM/s
same,K m,"full-length His6-JMJD6 [1]; BRD peptide substrate varied, 0.05 μM full-length His6-JMJD6, 2OG 200 μM, FAS 2 μM, LAA 100 μM, 50 mM Tris pH 7.5, ambient temperature, substrate inhibition fit, mean ± SD n = 3, read-out: Michaelis constant Km (K^app m)",0.62 ± 0.26 µM
same,turnover number kcat (k^app cat),"full-length His6-JMJD6 [1]; BRD peptide substrate varied, 0.05 μM full-length His6-JMJD6, 2OG 200 μM, pH 7.5, SPE-MS, calculated from v^app max assuming active JMJD6 = total enzyme, n = 3",0.12 ± 0.02 s⁻¹
same,catalytic efficiency kcat/Km,"full-length His6-JMJD6 [1]; BRD peptide substrate varied, 0.05 μM full-length His6-JMJD6, 2OG 200 μM, pH 7.5, SPE-MS, n = 3",190000 ± 80000 M⁻¹ s⁻¹
same,relative abundance of mono-hydroxylated peptide at plateau,"full-length His6-JMJD6 [1]; absence of LAA, after ~10 min, 50 nM JMJD6, 2OG 200 μM, FAS 2 μM, peptide 2 μM, pH 7.5, n = 3",~15%
same,substrate inhibition of JMJD6 catalysis,full-length His6-JMJD6 [1]; high substrate concentrations (>2 μM),inhibit JMJD6 catalysis
same,JMJD6-catalysed hydroxylation at low O2,full-length His6-JMJD6 [2]; [O2] < 2.5%,inhibited at low oxygen concentrations; also recorded: sensitive to low O2 concentrations
same,di- or higher-order hydroxylation,"full-length His6-JMJD6 [2]; varied O2, 37 °C, 60 or 90 s",no evidence for di- (or higher order) hydroxylation
same,incorporated oxygen in 18OH2,"full-length His6-JMJD6 [3]; 16O2 atmosphere in 18OH2, JMJD6 2 μM",complete incorporation of ^16O from atmospheric O2
same,mass shifts / origin of incorporated oxygen under 18O2,"full-length His6-JMJD6 [3]; 18O2 atmosphere in H2O, JMJD6 2 μM","successive +18 Da shifts; also recorded: originates, at least, predominantly from ^18O2; also recorded: originate predominantly from atmospheric O2"
same,retention on SPE cartridge,[4],efficiently retained on a C4 SPE cartridge
